In PMC11091889, “Silver Organometallics that are Highly Potent Thioredoxin and Glutathione Reductase Inhibitors: Exploring the Correlations of Solution Chemistry with the Strong Antibacterial Effects” (ACS Infectious Diseases, 2024):

Experiments:
[1] = Conductometry: molar conductivity of silver complexes in DMSO; format: physicochemical; settings: 1.0 mM in DMSO, calculated as monocarbene (NHC)AgX
Method in brief: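 Molar conductivity of each silver complex was measured at 1.0 mM in freshly distilled DMSO (specific conductivity ≤3 × 10^–8 S cm^–1) using an Apera Instruments EC9500 conductivity meter at 25 ± 2 °C. AgNO3 served as the 1:1 electrolyte reference, and readings were taken after dissolution to distinguish neutral monocarbene from ionic biscarbene forms.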

[2] = system: P. aeruginosa PA7 (DSM 24068); assay: microbe, parasite or virus in culture; format: cell-based, Pseudomonas aeruginosa; settings: n = 3, MHB; for MIC P. aeruginosa / EC50: mean ± standard error; for MIC P. aeruginosa / MIC P. aeruginosa (value in brackets): 22 h; for EC50: read-out: EC50 P. aeruginosa
Method in brief: (§1)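 Broth microdilution used 2–8 × 10^5 CFU/mL inocula, with compounds serially diluted 64 to 1 μg/mL and incubated 22 h at 37 °C, read at 600 nm. A. baumannii, K. pneumoniae and P. aeruginosa were grown in MHB pH 7.4; E. faecium was grown in TSY pH 7.0–7.2. MIC and EC50 were obtained by curve fitting from three independent experiments.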

[3] = system: K. pneumoniae (DSM 11678, ATCC33495); assay: Broth microdilution antibacterial assay; format: cell-based, Klebsiella pneumoniae; settings: n = 3, MHB; for MIC K. pneumoniae / EC50: mean ± standard error; for MIC K. pneumoniae / MIC K. pneumoniae (value in brackets): 22 h; for EC50: read-out: EC50 K. pneumoniae
Method in brief: as §1

[4] = system: S. aureus MRSA (DSM 11822, ICB 25701); assay: microbe, parasite or virus in culture; format: cell-based, methicillin resistant S. aureus; settings: n = 3, TSY; for MIC MRSA / EC50: mean ± standard error; for MIC MRSA / MIC MRSA (value in brackets): 22 h; for EC50: read-out: EC50 MRSA
Method in brief: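 Broth microdilution in TSY (30 g/L trypticase soy broth, 3 g/L yeast extract, pH 7.0–7.2), inoculum 2–8 × 10^5 CFU/mL, compounds serially diluted 64 to 1 μg/mL, 22 h at 37 °C. Growth read as absorbance at 600 nm; MIC and EC50 obtained by curve fitting, three independent experiments.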

[5] = target: T1, glutathione reductase (GR) from E. coli (Escherichia coli, UniProt P06715); assay: GR inhibition assay (DTNB reduction); format: biochemical; settings: ± standard deviation, n = 3, 75 min preincubation
T1 construct: purchased Antibodies online
T1 sequence (P06715 1-450): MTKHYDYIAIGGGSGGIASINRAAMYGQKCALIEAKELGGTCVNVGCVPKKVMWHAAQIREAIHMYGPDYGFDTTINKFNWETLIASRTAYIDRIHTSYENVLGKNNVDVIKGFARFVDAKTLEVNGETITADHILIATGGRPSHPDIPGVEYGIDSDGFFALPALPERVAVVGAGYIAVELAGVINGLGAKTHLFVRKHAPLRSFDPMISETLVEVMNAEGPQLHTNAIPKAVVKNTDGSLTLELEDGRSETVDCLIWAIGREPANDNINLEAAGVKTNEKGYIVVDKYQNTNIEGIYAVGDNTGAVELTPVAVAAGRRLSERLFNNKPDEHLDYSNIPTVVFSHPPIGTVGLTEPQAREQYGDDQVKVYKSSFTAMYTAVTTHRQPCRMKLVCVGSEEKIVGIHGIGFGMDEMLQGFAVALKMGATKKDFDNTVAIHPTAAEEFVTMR
Procedure: The inhibition of purified E. coli thioredoxin reductase (TrxR) and glutathione reductase (GR) from both E. coli and baker’s yeast was determined according to a previously applied procedure.[59],[60]
The TrxR (E. coli) and GR (baker’s yeast and E. coli) inhibition assays were performed according to previously published procedures.[62],[75] The assays are partly based on the procedure developed by Lu et al.[60] and make use of the reduction of 5,5′-dithiobis(2-nitrobenzoic acid) (DTNB). Solutions of E. coli TrxR (35.4 U/mL) and E. coli thioredoxin (Trx) (156 μg/mL) (both purchased from Sigma-Aldrich) or baker’s yeast GR (0,08 U/mL, Sigma-Aldrich) or E. coli GR (4.2 U/ml, Antibodies online) and GSSG (0.28 mM, Sigma-Aldrich) in distilled water were prepared, as were fresh 2 mM stock solutions of the test compounds in DMSO. Then, solutions with several concentrations of the test compounds in DMSO were prepared, and 35 μL of each solution was diluted with 965 μL of TE buffer (Tris–HCl 50 mM, EDTA 1 mM, pH 7.5). These solutions (20 μL) or TE buffer without the test compounds (20 μL, as control) were mixed with the TrxR or GR solutions (10 μL), the Trx or GSSG solutions (10 μL), and a solution of NADPH (200 μM) in TE buffer (100 μL) in a well on a 96-well plate. As a blank solution, 200 μM NADPH in TE buffer (100 μL) mixed with a DMSO/buffer mixture (40 μL) was used (final concentrations of DMSO: 0.5% v/v). The plate was incubated for 75 min at 25 °C with moderate shaking. After incubation, 100 μL of a reaction mixture (TE buffer containing 200 μM NADPH and 5 mM DTNB) was added to each well to initiate the reaction. After thorough mixing, the formation of 5-TNB was monitored by a microplate reader at 405 nm in 35 s intervals (10 measurements). The values were corrected by subtraction of the blank solution absorption values. The increase in the concentration of 5-TNB followed a linear trend (r^2 ≥ 0.990), and the enzymatic activities were calculated as the gradients (increase in absorbance per second) thereof. […] The inhibition is presented as the mean IC50 values and standard deviations obtained in three independent experiments.

Caco-2 cells = settings: read-out: Cytotoxicity IC50 Caco-2; 24 h, almost confluent cell layers, highest concentration 100 μM
Procedure: Besides the antimicrobial effects, the toxic effects of silver ions have to be considered.[10],[12] As a primary evaluation of the cell toxicity triggered by silver NHC complexes, almost confluent cell layers of CaCo-2 cells were grown and challenged for 24 h with the silver complexes and also with the silver reference compounds AgNO3 and SSD (see Figure 6).
Caco-2 cells were grown as almost confluent monolayers in 96-well plates. The complexes were dissolved in wells of 96-well plates as stock solutions in DMSO (0.2% v/v) diluted with DMEM cell culture medium, which was supplemented with 10% fetal calf serum and 50 mg/L gentamicin. The cell layers were incubated with the drug containing media for 24 h at 37 °C/5% CO2 in an incubator. The cell viability was determined using crystal violet (0.02%) staining and was calculated as percentage of an untreated control. Results were obtained in three independent experiments.

[6] = 25 mM in DMSO, dark, 24 h, visual inspection
Procedure: Because of the formation of black colloidal silver in the course of degradation, the solution stability of silver NHC complexes can be monitored visually and with the help of nephelometry. All synthesized complexes were dissolved at 25 mM in DMSO and kept in the dark for 24 h.
After the experiment, the DMSO stock solutions of compounds were kept away from direct light at room temperature for 24 h to monitor the stability of solutions.

Row | Compound | Molar conductivity ΛM ([1]; 1 h after dissolution) [S cm^2 mol^–^1] | Molar conductivity ΛM ([1]; 24 h after dissolution) [S cm^2 mol^–^1] | MIC P. aeruginosa [2] [µM] | EC50 [2] [µM] | MIC P. aeruginosa (value in brackets) [2] [µg/mL] | MIC K. pneumoniae [3] [µM] | EC50 [3] [µM] | MIC K. pneumoniae (value in brackets) [3] [µg/mL] | MIC MRSA [4] [µM] | EC50 [4] [µM] | MIC MRSA (value in brackets) [4] [µg/mL] | IC50 [5] [µM] | IC50 (Caco-2 cells) [µM] | Solution stability (signs of degradation, precipitation, silver colloid) [6]
1 | CC(C)n1[c](=[Ag][Cl])n(Cc2ccccn2)c2ccccc21 [3a, Chlorido (1-Isopropyl-3-(pyridin-2-ylmethyl)-benzimidazol-2-ylidene) Silver(I)] | 3.34 | 2.91 | 81.1 ± 0.0 | 39.1 ± 8.8 | 32 | 13.5 ± 3.4 | 9.8 ± 2.4 | 5 | 162 ± 0.0 | 88.6 ± 1.6 | 64 | 0.032 ± 0.002 |  | 
2 | CC(C)n1[c](=[Ag][Br])n(Cc2ccccn2)c2ccccc21 [3b, Bromido (1-Isopropyl-3-(pyridin-2-ylmethyl)-benzimidazol-2-ylidene) Silver(I)] | 5.25 | 4.71 | 60.7 ± 12.1 | 30 ± 6.9 | 26 | 18.2 ± 0.0 | 8.6 ± 0.2 | 8 | 146 ± 0.0 | 78.8 ± 0.4 | 64 | 0.041 ± 0.007 |  | 
3 | CC(C)n1[c](=[Ag][I])n(Cc2ccccn2)c2ccccc21 [3c, Iodido (1-Isopropyl-3-(pyridin-2-ylmethyl)-benzimidazol-2-ylidene) Silver(I)] | 8.15 | 7.62 | 11.0 ± 2.7 | 6 ± 1 | 5 | 4.11 ± 0.0 | 2.3 ± 0.3 | 2 | > 132 | > 132 | > 64 | 0.039 ± 0.006 | > 100 | did not show clear signs of degradation
4 | COCCn1[c](=[Ag][I])n(Cc2ccccn2)c2ccccc21 [4c, Iodido (1-(2-Methoxyethyl)-3-(pyridin-2-ylmethyl)-benzimidazol-2-ylidene) Silver(I)] | 7.18 | 8.83 | 18.6 ± 7.0 | 4.9 ± 1.2 | 9 | 4.0 ± 0.0 | 2 | 2 | > 128 | > 128 | > 64 |  | > 100 | did not show clear signs of degradation
